Source: BindingDB's records for doi:10.1016/j.bmcl.2008.12.083 (Merck Research Laboratories, 2009)

Assays:
[1] = biological target: Histone deacetylase 3 (Homo sapiens, UniProt O15379); experiment: HDAC Activity Assay; details: 25 °C
Method: (§1) The Fluor-de-Lys HDAC activity assay kit (Biomol) was used. Purified recombinant HDAC enzyme was incubated with Fluor-de-Lys substrate in the presence of test compounds. Fluor-de-Lys Developer was then added, and the mixture was incubated for another 10 min at room temperature. Fluorescence was measured using a fluorescent plate reader, with excitation 360 nm and emission 460 nm.

[2] = biological target: Histone deacetylase 1 (Homo sapiens, UniProt Q13547); experiment: HDAC Activity Assay; details: pH 8; 37 °C
Histone deacetylase 1, sequence (Q13547 whole entry): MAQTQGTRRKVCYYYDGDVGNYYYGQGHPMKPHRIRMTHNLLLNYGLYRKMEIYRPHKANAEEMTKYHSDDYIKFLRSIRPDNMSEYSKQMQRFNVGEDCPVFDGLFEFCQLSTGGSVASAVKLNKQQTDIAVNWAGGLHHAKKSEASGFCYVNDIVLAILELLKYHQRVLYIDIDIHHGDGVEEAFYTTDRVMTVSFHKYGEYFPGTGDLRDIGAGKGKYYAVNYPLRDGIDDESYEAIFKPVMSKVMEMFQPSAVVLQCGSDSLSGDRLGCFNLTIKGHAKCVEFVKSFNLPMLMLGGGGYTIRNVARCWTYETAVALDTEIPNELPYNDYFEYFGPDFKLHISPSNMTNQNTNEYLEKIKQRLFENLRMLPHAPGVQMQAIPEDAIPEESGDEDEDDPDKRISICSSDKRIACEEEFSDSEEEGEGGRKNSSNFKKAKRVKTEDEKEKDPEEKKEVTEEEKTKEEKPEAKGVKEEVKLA
Method: as §1

Histone deacetylase 3, sequence (O15379 whole entry): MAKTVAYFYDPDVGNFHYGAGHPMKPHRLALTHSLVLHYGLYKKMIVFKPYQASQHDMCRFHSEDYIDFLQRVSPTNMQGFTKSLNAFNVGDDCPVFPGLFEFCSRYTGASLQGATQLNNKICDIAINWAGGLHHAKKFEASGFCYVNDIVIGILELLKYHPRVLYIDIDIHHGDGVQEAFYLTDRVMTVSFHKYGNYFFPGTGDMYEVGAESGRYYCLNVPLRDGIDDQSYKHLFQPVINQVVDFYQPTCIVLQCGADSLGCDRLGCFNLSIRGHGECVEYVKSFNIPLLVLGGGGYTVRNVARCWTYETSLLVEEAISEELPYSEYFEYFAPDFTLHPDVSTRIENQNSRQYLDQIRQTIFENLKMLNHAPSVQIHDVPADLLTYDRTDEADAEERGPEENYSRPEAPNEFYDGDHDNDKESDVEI

IC50 [1] [µM] | IC50 [2] [µM] | Structure (SMILES)
19.3 | – | Cc1c(CNCc2ccc(C(=O)Nc3cc(-c4ccccc4)ccc3N)cc2)cnn1C [N-(2-amino-5-phenylphenyl)-4-({[(1,5-dimethyl-1H-pyrazol-4-yl)methyl]amino}methyl)benzamide]
4.8 | 0.013 | Nc1ccc(-c2ccc(F)cc2)cc1NC(=O)c1ccc(CN2CCC3(CCCN3)CC2)cc1 [N-[2-amino-5-(4-fluorophenyl)phenyl]-4-{1,8-diazaspiro[4.5]decan-8-ylmethyl}benzamide]
